The values below come from patent US7045280B2, “Assay method” (AstraZeneca AB, priority 1999, dated 2006).

Type in all cases: biochemical
Test [1] has as its target T1, uPA (Homo sapiens, UniProt P00749).
T1 construct: uPA (high molecular weight uPA Calbiochem, Cat. 627081); purchased Calbiochem 627081
Briefly: uPA chromogenic substrate assay (S2444). The method, then: (§1) Briefly, uPA (high molecular weight uPA Calbiochem, Cat. 627081), tpA (Quadratech, Cat. 821157) or plasmin (Quadratech, Cat. 810655) were diluted-in buffer comprising 0.5M tris HCl, 0.1% tween 20 pH 8.3. Urokinase activity was measured in a final volume of 100 μl containing 0.4 mM S2444 in assay buffer by following the increase in absorbance at 405 nm. The activity of tPA was measured in a final volume of 100 μl, containing 230 nM Spectrozyrne tPA substrate (American Diagnostica, Cat. 444L) and 40 μg per ml tPA stimulator (fibrin, Quadratech, Cat. 821116) and following the increase in absorbance at 405 nm. Plasmin activity was measured in a final volume of 100 μl containing 0.66 mM S2251, and following the increase in absorbance at 405 nm.

Test [2] deals with T2, tPA (Homo sapiens, UniProt P00750).
T2 construct: purchased Quadratech 821157
T2 sequence (P00750 36-562): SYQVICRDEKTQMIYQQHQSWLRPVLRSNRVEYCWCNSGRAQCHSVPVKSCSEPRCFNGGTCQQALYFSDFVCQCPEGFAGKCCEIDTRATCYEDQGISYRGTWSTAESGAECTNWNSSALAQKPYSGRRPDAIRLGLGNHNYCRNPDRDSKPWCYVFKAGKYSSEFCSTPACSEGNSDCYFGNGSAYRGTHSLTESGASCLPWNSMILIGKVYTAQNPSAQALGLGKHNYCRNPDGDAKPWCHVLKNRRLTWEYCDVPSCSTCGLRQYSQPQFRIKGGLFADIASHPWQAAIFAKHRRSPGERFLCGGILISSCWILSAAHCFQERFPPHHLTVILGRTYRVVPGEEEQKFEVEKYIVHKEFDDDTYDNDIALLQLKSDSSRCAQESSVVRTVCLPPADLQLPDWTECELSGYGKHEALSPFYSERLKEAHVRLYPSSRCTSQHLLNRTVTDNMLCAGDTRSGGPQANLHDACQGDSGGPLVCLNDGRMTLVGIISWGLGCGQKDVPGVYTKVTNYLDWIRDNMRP
Briefly: tPA chromogenic substrate assay (Spectrozyme tPA, fibrin stimulator). How it is done: as §1

The target in test [3] is T3, Plasmin (Homo sapiens, UniProt P00747).
T3 construct: purchased Quadratech 810655
T3 sequence (P00747 97-580 partner limits assumed): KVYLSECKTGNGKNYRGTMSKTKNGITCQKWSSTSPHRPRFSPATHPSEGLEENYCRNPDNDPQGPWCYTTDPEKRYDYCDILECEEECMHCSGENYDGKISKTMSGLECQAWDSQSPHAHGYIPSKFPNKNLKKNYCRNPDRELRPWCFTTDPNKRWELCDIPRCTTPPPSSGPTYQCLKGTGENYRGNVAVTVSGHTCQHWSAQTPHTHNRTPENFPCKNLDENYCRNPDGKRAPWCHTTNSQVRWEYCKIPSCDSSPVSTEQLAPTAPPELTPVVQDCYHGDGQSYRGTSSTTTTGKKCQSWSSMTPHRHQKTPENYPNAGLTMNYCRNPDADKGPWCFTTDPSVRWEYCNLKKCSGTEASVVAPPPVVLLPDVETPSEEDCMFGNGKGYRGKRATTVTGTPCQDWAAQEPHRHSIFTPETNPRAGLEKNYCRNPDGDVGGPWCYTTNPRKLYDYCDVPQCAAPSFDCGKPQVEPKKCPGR
T3 sequence (P00747 581-810 limits assumed): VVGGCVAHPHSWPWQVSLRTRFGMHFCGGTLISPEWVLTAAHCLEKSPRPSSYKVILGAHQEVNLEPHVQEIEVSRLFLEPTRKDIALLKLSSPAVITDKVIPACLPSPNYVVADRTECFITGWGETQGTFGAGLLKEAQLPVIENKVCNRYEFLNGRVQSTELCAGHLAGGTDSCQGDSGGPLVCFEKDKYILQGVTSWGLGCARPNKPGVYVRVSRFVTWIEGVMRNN
As to the kind of experiment: Plasmin chromogenic substrate assay (S2251). The method, then: as §1

Structures are written as SMILES.

On to `CC(C)[C@H](NC(=O)c1ccc(C(=O)NS(=O)(=O)c2ccc(Br)cc2)cc1)C(=O)N1CCC[C@H]1C(=O)N[C@H](C(=O)C(F)(F)F)C(C)C` [elastase inhibitor, 3S-[4-[(4-bromophenyl)sulfonylaminocarbonyl]phenylcarbonyl]-L-valyl-N-[3-(1,1,1-trifluoro-4-methyl-2-oxopentyl)]-L-prolinamide], for which the “% inhibition” value in test [1] (100 μM elastase inhibitor, uPA (5 nM), 0.4 mM S2444, absorbance at 405 nm) was found to be 2%; in test [2] (100 μM elastase inhibitor, tPA (30 nM), Spectrozyme tPA substrate, 40 μg per ml tPA stimulator, absorbance at 405 nm) it was 9%; in test [3] (100 μM elastase inhibitor, Plasmin (2.5 μg ml-1), 0.66 mM S2251, absorbance at 405 nm) it was 2%. In addition, in test [1] (chromogenic substrate assay), the “inhibition of uPA activity (in words)” value is “did not significantly inhibit”. In addition, the “inhibition of tPA activity (in words)” value in test [2] (chromogenic substrate assay) is listed as “did not significantly inhibit”. In addition, in test [3] (chromogenic substrate assay), the “inhibition of plasmin activity (in words)” value is on record as “did not significantly inhibit”.
